Results from patent US4294972A, “1,2-Disubstituted oxo triazolidine” (Beecham Group Limited, priority 1978, dated 1981).

Experiments:
[1] = tested on: bronchoconstriction induced by an histamine aerosol; assay: Herxheimer test: protection of conscious guinea pigs against histamine aerosol induced bronchoconstriction; type: in vivo, guinea pig; conditions: at 10 μg/ml after two minutes, mean of several experiments
Protocol: 2. The compounds were also examined for their ability to protect conscious guinea pigs against bronchoconstriction induced by an histamine aerosol (Herxheimer test). In these experiments the compounds were administered by aerosol. The results are the mean of several experiments.

[2] = tested on: 5-hydroxytryptamine or histamine induced bronchoconstriction; assay: Konzett-Rossler preparation: inhibition of 5-hydroxytryptamine or histamine induced bronchoconstriction, anaesthetised artificially respired guinea pig; type: in vivo; conditions: Cavia porcellus, iv
Protocol: 1. The compounds were examined for their ability to inhibit 5-hydroxytryptamine or histamine induced bronchoconstriction in the anaesthetised, artificially respired guinea pig (Konzett-Rossler preparation). The compounds were administered intravenously.

CCCCCCC(C)(O)CCn1c(=O)n(C)c(=O)n1CCCCCCCC(C)=O (stereo not drawn) [Compound 1, 1-(8-oxononyl)-2-(3"-hydroxy-3"-methylnonyl)-4-methyl-1,2,4-triazolidine-3,5-dione]
Herxheimer % increase in preconvulsive coughing time [1]: Active
ED50 [2]: 2.7 µg/kg

CCCCCC(O)CCn1c(=O)n(C)c(=O)n1CCCCCCCC(C)=O (stereo not drawn) [Compound 8]
Herxheimer % increase in preconvulsive coughing time [1]: 31%
ED50 [2]: 6.9 µg/kg

CCCCCCC(C)(O)CCn1c(=O)n(C)c(=S)n1CCCCCCCC(C)=O (stereo not drawn) [Compound 9]
Herxheimer % increase in preconvulsive coughing time [1]: 52%
ED50 [2]: 26.5 µg/kg
